In ChEMBL document CHEMBL5131542, “Exploring Degradation of Mutant and Wild-Type Epidermal Growth Factor Receptors Induced by Proteolysis-Targeting Chimeras” (J Med Chem, 2022):
Activity calls are given as the source filed them. The rule behind the calls is not given here.

Tests used:
[1] = test system: von Hippel-Lindau disease tumor suppressor/Epidermal growth factor receptor (Homo sapiens), P00533+P40337 [UNDEFINED MUTATION]; test: PROTAC activity at VHL/EGFR Del19 mutant in human HCC827 cells assessed as EGFR degradation treated after 8 hrs under serum starvation condition at 10 to 1000 nM measured after 16 hrs by Western blotting analysis; type: cell-based; details: dose 10-1000 nM
Sequence of von Hippel-Lindau disease tumor suppressor/Epidermal growth factor receptor (Homo sapiens), P00533+P40337 [UNDEFINED MUTATION] (P00533 whole entry, looked up, stated change not applied): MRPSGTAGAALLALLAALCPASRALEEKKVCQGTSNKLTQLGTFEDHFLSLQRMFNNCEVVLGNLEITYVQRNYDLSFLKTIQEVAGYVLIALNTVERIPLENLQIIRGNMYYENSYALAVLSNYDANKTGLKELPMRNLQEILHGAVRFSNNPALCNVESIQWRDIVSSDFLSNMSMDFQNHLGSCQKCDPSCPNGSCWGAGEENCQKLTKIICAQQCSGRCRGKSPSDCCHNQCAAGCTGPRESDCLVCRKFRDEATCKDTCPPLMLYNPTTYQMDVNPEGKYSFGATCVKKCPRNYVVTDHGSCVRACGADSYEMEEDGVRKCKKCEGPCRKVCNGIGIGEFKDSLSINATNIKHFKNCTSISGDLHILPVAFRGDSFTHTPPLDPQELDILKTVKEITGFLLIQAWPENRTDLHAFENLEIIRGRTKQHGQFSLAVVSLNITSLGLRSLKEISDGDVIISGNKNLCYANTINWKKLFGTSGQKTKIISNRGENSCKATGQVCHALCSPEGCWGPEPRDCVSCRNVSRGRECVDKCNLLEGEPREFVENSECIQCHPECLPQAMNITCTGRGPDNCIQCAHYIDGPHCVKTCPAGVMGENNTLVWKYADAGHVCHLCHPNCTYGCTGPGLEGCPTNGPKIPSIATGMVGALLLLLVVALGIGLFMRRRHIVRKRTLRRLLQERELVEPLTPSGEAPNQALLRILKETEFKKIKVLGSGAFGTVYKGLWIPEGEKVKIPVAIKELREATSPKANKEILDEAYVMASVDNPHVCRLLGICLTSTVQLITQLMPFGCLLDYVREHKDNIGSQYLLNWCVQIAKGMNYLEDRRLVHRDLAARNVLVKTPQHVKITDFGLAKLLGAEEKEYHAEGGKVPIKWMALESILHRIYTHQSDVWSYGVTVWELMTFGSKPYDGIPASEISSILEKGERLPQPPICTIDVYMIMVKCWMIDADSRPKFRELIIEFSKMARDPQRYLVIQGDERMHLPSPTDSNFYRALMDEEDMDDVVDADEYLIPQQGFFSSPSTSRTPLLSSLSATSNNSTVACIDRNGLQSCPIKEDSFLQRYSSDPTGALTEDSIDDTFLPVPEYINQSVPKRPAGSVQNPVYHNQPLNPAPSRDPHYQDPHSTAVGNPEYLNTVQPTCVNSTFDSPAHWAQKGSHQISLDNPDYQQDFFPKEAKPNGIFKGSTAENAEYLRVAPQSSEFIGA
Sequence of von Hippel-Lindau disease tumor suppressor/Epidermal growth factor receptor (Homo sapiens), P00533+P40337 [UNDEFINED MUTATION] (P40337 whole entry, looked up, stated change not applied): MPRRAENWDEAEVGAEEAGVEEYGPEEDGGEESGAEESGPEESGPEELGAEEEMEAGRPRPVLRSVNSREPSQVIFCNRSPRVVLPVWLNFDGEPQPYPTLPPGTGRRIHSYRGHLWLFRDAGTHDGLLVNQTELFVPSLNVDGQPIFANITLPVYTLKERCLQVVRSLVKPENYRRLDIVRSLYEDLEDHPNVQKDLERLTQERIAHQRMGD

[2] = test system: HCC827; test: Antiproliferative activity against human HCC827 cells assessed as cell growth inhibition incubated for 3 days by CCK-8 assay; type: functional; details: HCC827, 72 h, time 3 day
[3] = biological target: T1, von Hippel-Lindau disease tumor suppressor/Epidermal growth factor receptor (Homo sapiens, UniProt P00533+P40337); test: PROTAC activity at VHL/wild type EGFR in human OVCAR-8 cells assessed as EGFR degradation measured after 24 hrs by Immunoblotting analysis; type: cell-based
[4] = biological target: Epidermal growth factor receptor (Homo sapiens, UniProt P00533); test: Binding affinity to human wild type partial length EGFR (R669 to V1011 residues) expressed in bacterial expression system assessed as immobilized ligand binding by competitive binding assay
[5] = biological target: Epidermal growth factor receptor (Homo sapiens, UniProt P00533, L858R); test: Binding affinity to human partial length EGFR (R669 to V1011 residues) L858R mutant expressed in bacterial expression system assessed as immobilized ligand binding by competitive binding assay
Sequence of Epidermal growth factor receptor (Homo sapiens, UniProt P00533, L858R) (P00533 25-1210 L858R limits assumed): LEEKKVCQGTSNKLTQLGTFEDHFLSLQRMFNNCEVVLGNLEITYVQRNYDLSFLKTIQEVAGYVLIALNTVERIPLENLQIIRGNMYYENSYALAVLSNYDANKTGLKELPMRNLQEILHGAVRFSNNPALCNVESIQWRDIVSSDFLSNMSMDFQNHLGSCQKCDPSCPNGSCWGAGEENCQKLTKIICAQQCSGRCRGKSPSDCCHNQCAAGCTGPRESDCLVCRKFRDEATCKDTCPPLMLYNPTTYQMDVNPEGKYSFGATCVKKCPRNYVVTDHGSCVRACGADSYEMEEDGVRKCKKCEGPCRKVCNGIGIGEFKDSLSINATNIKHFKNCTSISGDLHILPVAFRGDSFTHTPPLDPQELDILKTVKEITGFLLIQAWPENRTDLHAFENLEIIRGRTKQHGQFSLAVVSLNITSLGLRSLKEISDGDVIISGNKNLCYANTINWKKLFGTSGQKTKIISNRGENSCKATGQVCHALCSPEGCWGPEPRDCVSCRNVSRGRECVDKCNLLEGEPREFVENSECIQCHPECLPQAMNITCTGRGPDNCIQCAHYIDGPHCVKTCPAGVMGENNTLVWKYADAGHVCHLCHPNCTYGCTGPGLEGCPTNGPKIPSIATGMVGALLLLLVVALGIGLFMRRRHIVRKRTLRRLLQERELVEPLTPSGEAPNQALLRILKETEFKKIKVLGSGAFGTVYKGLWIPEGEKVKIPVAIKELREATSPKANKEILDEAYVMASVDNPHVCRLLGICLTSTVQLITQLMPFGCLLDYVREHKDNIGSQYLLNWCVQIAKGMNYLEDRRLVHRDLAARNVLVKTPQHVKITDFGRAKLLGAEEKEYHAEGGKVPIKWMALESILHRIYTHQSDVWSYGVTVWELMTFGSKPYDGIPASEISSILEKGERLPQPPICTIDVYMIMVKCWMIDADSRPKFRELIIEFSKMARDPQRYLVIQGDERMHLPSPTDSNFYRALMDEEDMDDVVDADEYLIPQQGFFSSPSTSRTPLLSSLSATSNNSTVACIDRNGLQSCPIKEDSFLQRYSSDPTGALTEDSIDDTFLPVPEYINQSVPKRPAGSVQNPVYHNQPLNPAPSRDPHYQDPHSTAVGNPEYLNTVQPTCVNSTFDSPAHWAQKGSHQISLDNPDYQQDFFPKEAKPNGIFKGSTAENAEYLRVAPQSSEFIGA

[6] = test system: OVCAR-8; test: Antiproliferative activity against human OVCAR-8 cells expressing wild type EGFR assessed as cell growth inhibition at 1 uM in presence of pictilisib; type: functional, cell-based
[7] = test system: NCI-H1299; test: Antiproliferative activity against human NCI-H1299 cells expressing wild type EGFR assessed as cell growth inhibition at 1 uM in presence of pictilisib; type: functional, cell-based
[8] = test system: Protein cereblon/Epidermal growth factor receptor (Homo sapiens), P00533+Q96SW2 [UNDEFINED MUTATION]; test: PROTAC activity at CRBN/EGFR Del19 mutant in human HCC827 cells assessed as EGFR degradation treated after 8 hrs under serum starvation condition at 100 nM measured after 16 hrs by Western blotting analysis; type: cell-based
Sequence of Protein cereblon/Epidermal growth factor receptor (Homo sapiens), P00533+Q96SW2 [UNDEFINED MUTATION] (P00533 whole entry, looked up, stated change not applied): as the sequence (P00533 whole entry, looked up, stated change not applied) above
Sequence of Protein cereblon/Epidermal growth factor receptor (Homo sapiens), P00533+Q96SW2 [UNDEFINED MUTATION] (Q96SW2 whole entry, looked up, stated change not applied): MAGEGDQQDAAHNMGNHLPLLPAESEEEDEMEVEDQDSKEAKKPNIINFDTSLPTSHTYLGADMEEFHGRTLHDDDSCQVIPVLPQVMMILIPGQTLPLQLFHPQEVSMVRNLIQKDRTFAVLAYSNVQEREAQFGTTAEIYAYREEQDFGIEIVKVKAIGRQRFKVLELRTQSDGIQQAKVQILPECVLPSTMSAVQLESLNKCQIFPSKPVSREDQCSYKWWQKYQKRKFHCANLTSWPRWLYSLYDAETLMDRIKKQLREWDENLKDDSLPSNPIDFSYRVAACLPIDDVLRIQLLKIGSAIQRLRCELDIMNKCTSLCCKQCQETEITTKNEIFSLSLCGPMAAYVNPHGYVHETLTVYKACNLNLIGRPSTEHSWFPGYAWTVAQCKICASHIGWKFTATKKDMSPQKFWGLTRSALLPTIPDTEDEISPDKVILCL

[9] = test system: Protein cereblon/Epidermal growth factor receptor (Homo sapiens), P00533+Q96SW2 [UNDEFINED MUTATION]; test: PROTAC activity at CRBN/EGFR Del19 mutant in human HCC827 cells assessed as EGFR degradation treated after 8 hrs under serum starvation condition at 1 uM measured after 16 hrs by Western blotting analysis; type: cell-based
[10] = biological target: T1, von Hippel-Lindau disease tumor suppressor/Epidermal growth factor receptor; test: PROTAC activity at VHL/EGFR Del19 mutant in human HCC827 cells; type: cell-based

| Compound | Activity [1] | GI50 [2] [µM] | other results |
| --- | --- | --- | --- |
| COc1cc2ncnc(Nc3ccc(F)c(Cl)c3)c2cc1OCCCN1CCN(C(=O)CCCCCCCNC(=O)C[C@H](NC(=O)[C@@H]2C[C@@H](O)CN2C(=O)[C@@H](c2cc(C)no2)C(C)C)c2ccc(-c3scnc3C)cc2)CC1 | Active | 0.61 |  |
| COc1cc2ncnc(Nc3ccc(F)c(Cl)c3)c2cc1OCCCN1CCN(C(=O)CCCCNC(=O)C[C@H](NC(=O)[C@@H]2C[C@@H](O)CN2C(=O)[C@@H](c2cc(C)no2)C(C)C)c2ccc(-c3scnc3C)cc2)CC1 |  | 0.77 |  |
| Cc1ncsc1-c1ccc(CNC(=O)[C@@H]2C[C@@H](O)CN2C(=O)[C@@H](NC(=O)COCCOCCOc2ccc(-c3ccc4ncnc(Nc5ccc(OCc6cccc(F)c6)c(Cl)c5)c4c3)cc2)C(C)(C)C)cc1 |  |  | DC50 [3]: 0.039 µM |
| COc1cc2ncnc(Nc3ccc(F)c(Cl)c3)c2cc1OCCCN1CCN(C(=O)CCCNC(=O)C[C@H](NC(=O)[C@@H]2C[C@@H](O)CN2C(=O)[C@@H](c2cc(C)no2)C(C)C)c2ccc(-c3scnc3C)cc2)CC1 | Active | 0.88 |  |
| COc1cc2ncnc(Nc3ccc(F)c(Cl)c3)c2cc1OCCCN1CCN(C(=O)CNC(=O)C[C@H](NC(=O)[C@@H]2C[C@@H](O)CN2C(=O)[C@@H](c2cc(C)no2)C(C)C)c2ccc(-c3scnc3C)cc2)CC1 | Active | 0.71 |  |
| COc1cc2ncnc(Nc3ccc(F)c(Cl)c3)c2cc1OCCCN1CCN(C(=O)CCOCCOCCOCCOCCOCCNc2ccc3c(c2)C(=O)N(C2CCC(=O)N(C)C2=O)C3=O)CC1 (stereo unspecified) |  |  | Kd [4]: 0.0064 µM; Kd [5]: 0.0029 µM |
| COc1cc2ncnc(Nc3ccc(F)c(Cl)c3)c2cc1OCCCN1CCN(C(=O)CCCCCCCCCC(=O)N[C@H](C(=O)N2C[C@H](O)C[C@H]2C(=O)NCc2ccc(-c3scnc3C)cc2)C(C)(C)C)CC1 |  | 0.23 | Activity [6]: Active; Activity [7]: Active |
| COc1cc2ncnc(Nc3ccc(F)c(Cl)c3)c2cc1OCCCN1CCN(C(=O)CCCCCCCCCCNC(=O)C[C@H](NC(=O)[C@@H]2C[C@@H](O)CN2C(=O)[C@@H](c2cc(C)no2)C(C)C)c2ccc(-c3scnc3C)cc2)CC1 |  | 0.25 | Activity [6]: Active; Activity [7]: Active |
| COc1cc2ncnc(Nc3ccc(F)c(Cl)c3)c2cc1OCCCN1CCN(CCC(=O)NCCCCCCCCNc2ccc3c(c2)C(=O)N(C2CCC(=O)NC2=O)C3=O)CC1 (stereo unspecified) |  |  | Activity [8]: Active; Activity [9]: Active |
| Cc1ncsc1-c1ccc(CNC(=O)[C@@H]2C[C@@H](O)CN2C(=O)[C@@H](NC(=O)CCCCCCCCCCn2cc(COc3cc4ncnc(Nc5ccc(F)c(Cl)c5)c4cc3NC(=O)/C=C/CN3CCCCC3)nn2)C(C)(C)C)cc1 |  |  | DC50 [10]: 0.0036 µM |
| COc1cc2ncnc(Nc3ccc(F)c(Cl)c3)c2cc1OCCCN1CCN(C(=O)CCCCCNC(=O)C[C@H](NC(=O)[C@@H]2C[C@@H](O)CN2C(=O)[C@@H](c2cc(C)no2)C(C)C)c2ccc(-c3scnc3C)cc2)CC1 | Active | 0.79 |  |
| COc1cc2ncnc(Nc3ccc(F)c(Cl)c3)c2cc1OCCCN1CCN(C(=O)CCOCCOCCOCCOCCNc2ccc3c(c2)C(=O)N(C2CCC(=O)NC2=O)C3=O)CC1 (stereo unspecified) |  | 0.93 |  |
| COc1cc2ncnc(Nc3ccc(F)c(Cl)c3)c2cc1OCCCN1CCN(C(=O)CCOCCOCCOCCOCCOCCNc2ccc3c(c2)C(=O)N(C2CCC(=O)NC2=O)C3=O)CC1 (stereo unspecified) |  | 0.87 | Activity [6]: Active; Activity [7]: Active |
| COc1cc2ncnc(Nc3ccc(F)c(Cl)c3)c2cc1OCCCN1CCN(C(=O)CCNC(=O)C[C@H](NC(=O)[C@@H]2C[C@@H](O)CN2C(=O)[C@@H](NC(=O)C2(F)CC2)C(C)(C)C)c2ccc(-c3scnc3C)cc2)CC1 |  | 1.02 |  |
| COc1cc2ncnc(Nc3ccc(F)c(Cl)c3)c2cc1OCCCN1CCN(C(=O)CCCCCCCCNC(=O)C[C@H](NC(=O)[C@@H]2C[C@@H](O)CN2C(=O)[C@@H](c2cc(C)no2)C(C)C)c2ccc(-c3scnc3C)cc2)CC1 | Active | 0.46 |  |
| COc1cc2ncnc(Nc3ccc(F)c(Cl)c3)c2cc1OCCCN1CCN(C(=O)C[C@H](NC(=O)[C@@H]2C[C@@H](O)CN2C(=O)[C@@H](c2cc(C)no2)C(C)C)c2ccc(-c3scnc3C)cc2)CC1 |  | 0.73 |  |
| COc1cc2ncnc(Nc3ccc(F)c(Cl)c3)c2cc1OCCCN1CCN(C(=O)CCNC(=O)C[C@H](NC(=O)[C@@H]2C[C@@H](O)CN2C(=O)[C@@H](c2cc(C)no2)C(C)C)c2ccc(-c3scnc3C)cc2)CC1 | Active | 0.78 |  |
| COc1cc2ncnc(Nc3ccc(F)c(Cl)c3)c2cc1OCCCN1CCN(CCC(=O)NCCCCCCCCOc2cccc3c2C(=O)N(C2CCC(=O)NC2=O)C3)CC1 (stereo unspecified) |  | 0.66 | Activity [6]: Active; Activity [7]: Active |
| COc1cc2ncnc(Nc3ccc(F)c(Cl)c3)c2cc1OCCCN1CCN(C(=O)CCCCCCCCCNC(=O)C[C@H](NC(=O)[C@@H]2C[C@@H](O)CN2C(=O)[C@@H](c2cc(C)no2)C(C)C)c2ccc(-c3scnc3C)cc2)CC1 | Active | 0.59 |  |
